Patent US20250236639A1, “NEUROACTIVE STEROIDS AND COMPOSITIONS THEREOF” (Sage Therapeutics, Inc., priority 2019, published 2025)

Target: GABAA receptor
Assay: Steroid inhibition of [35S]-TBPS binding, rat brain cortical membranes
Conditions: 3 nM [35S]-TBPS, in the presence of 5 mM GABA
Procedure: [^35S]-t-Butylbicyclophosphorothionate (TBPS) binding assays using rat brain cortical membranes in the presence of 5 mM GABA has been described (Gee et al, J. Pharmacol. Exp. Ther. 1987, 241, 346-353; Hawkinson et al, Mol. Pharmacol. 1994, 46, 977-985; Lewin, A. H et al., Mol. Pharmacol. 1989, 35, 189-194).
Briefly, cortices are rapidly removed following decapitation of carbon dioxide-anesthetized Sprague-Dawley rats (200-250 g). The cortices are homogenized in 10 volumes of ice-cold 0.32 M sucrose using a glass/teflon homogenizer and centrifuged at 1500×g for 10 min at 4° C. The resultant supernatants are centrifuged at 10,000×g for 20 min at 4° C. to obtain the P2 pellets. The P2 pellets are resuspended in 200 mM NaCl/50 mM Na—K phosphate pH 7.4 buffer and centrifuged at 10,000×g for 10 min at 4° C. This washing procedure is repeated twice and the pellets are resuspended in 10 volumes of buffer. Aliquots ([…]) of the membrane suspensions are incubated with 3 nM [^35S]-TBPS and […] aliquots of test drug dissolved in dimethyl sulfoxide (DMSO) (final 0.5%) in the presence of 5 mM GABA. The incubation is brought to a final volume of 1.0 mL with buffer. Nonspecific binding is determined in the presence of […] and ranged from 15 to 25%. Following a 90 min incubation at room temp, the assays are terminated by filtration through glass fiber filters (Schleicher and Schuell No. 32) using a cell harvester (Brandel) and rinsed three times with ice-cold buffer. Filter bound radioactivity is measured by liquid scintillation spectrometry. Non-linear curve fitting of the overall data for each drug averaged for each concentration is done using Prism (GraphPad). […] The concentration of test compound producing 50% inhibition (IC50) of specific binding and the maximal extent of inhibition (Imax) are determined for the individual experiments with the same model used for the overall data and then the means±SEM.s of the individual experiments are calculated.
Various compounds are or can be screened to determine their potential as modulators of [^35S]-TBPS binding in vitro. These assays are or can be performed in accordance with the above

Compound | IC50 [nM]
C[C@@H]1C[C@H]2[C@H](CC[C@@H]3[C@@H]2CC[C@@]2(C)[C@H]3CC[C@@H]2[C@](C)(O)Cn2cc(C#N)cn2)C[C@]1(C)O [Compound 52, 1-((S)-2-hydroxy-2-((2R,3S,5R,8R,9R,10S,13S,14S,17S)-3-hydroxy-2,3,13-trimethylhexadecahydro-1H-cyclopenta[a]phenanthren-17-yl)propyl)-1H-pyrazole-4-carbonitrile] | < 100
CCC[C@@]1(O)CC[C@H]2[C@H](CC[C@@H]3[C@@H]2CC[C@@]2(C)[C@H]3CC[C@@H]2[C@@](C)(O)Cn2ccc(C#N)n2)C1 [Compound 23, 1-((R)-2-hydroxy-2-((3R,5R,8R,9R,10S,13S,14S,17S)-3-hydroxy-13-methyl-3-propylhexadecahydro-1H-cyclopenta[a]phenanthren-17-yl)propyl)-1H-pyrazole-3-carbonitrile] | 100 to 1000
CC[C@]12CC[C@@](C)(O)C[C@H]1CC[C@H]1[C@@H]3CC[C@H]([C@](C)(O)Cn4cc(C#N)cn4)[C@@]3(C)CC[C@@H]12 [Compound 3, 1-((S)-2-((3R,5R,8S,9S,10S,13S,14S,17S)-10-ethyl-3-hydroxy-3,13-dimethylhexadecahydro-1H-cyclopenta[a]phenanthren-17-yl)-2-hydroxypropyl)-1H-pyrazole-4-carbonitrile] | < 100
CCOC[C@@]1(O)CC[C@H]2[C@H](CC[C@@H]3[C@@H]2CC[C@@]2(C)[C@H]3CC[C@@H]2[C@@](C)(O)Cn2cc(C#N)cn2)C1 [Compound 16, 1-((R)-2-((3R,5R,8R,9R,10S,13S,14S,17S)-3-(ethoxymethyl)-3-hydroxy-13-methylhexadecahydro-1H-cyclopenta[a]phenanthren-17-yl)-2-hydroxypropyl)-1H-pyrazole-4-carbonitrile] | < 100
COC[C@@H]1C[C@H]2[C@H](CC[C@@H]3[C@@H]2CC[C@@]2(C)[C@H]3CC[C@@H]2[C@@](C)(O)Cn2cc(C#N)cn2)C[C@]1(C)O [Compound 59A, 1-((R)-2-hydroxy-2-((2S,3S,5R,8R,9R,10S,13S,14S,17S)-3-hydroxy-2-(methoxymethyl)-3,13-dimethylhexadecahydro-1H-cyclopenta[a]phenanthren-17-yl)propyl)-1H-pyrazole-4-carbonitrile] | 100 to 1000
COC[C@@]1(O)CC[C@H]2[C@H](CC[C@@H]3[C@@H]2CC[C@]2(C)[C@@H](C4(Cn5cc(C#N)cn5)COC4)CC[C@@H]32)C1 [Compound 40, 1-((3-((3R,5R,8R,9R,10S,13S,14S,17S)-3-hydroxy-3-(methoxymethyl)-13-methylhexadecahydro-1H-cyclopenta[a]phenanthren-17-yl)oxetan-3-yl)methyl)-1H-pyrazole-4-carbonitrile] | < 100
C[C@@H]1C[C@H]([C@](C)(O)Cn2cc(C#N)cn2)[C@@]2(C)CC[C@H]3[C@@H](CC[C@@H]4C[C@](C)(O)CC[C@@H]43)[C@H]12 [Compound 48, 1-((S)-2-hydroxy-2-((3R,5R,8R,9R,10S,13S,14S,15R,17S)-3-hydroxy-3,13,15-trimethylhexadecahydro-1H-cyclopenta[a]phenanthren-17-yl)propyl)-1H-pyrazole-4-carbonitrile] | < 100
C[C@@]1(O)CC[C@H]2[C@H](CC[C@@H]3[C@@H]2CC[C@@]2(C)[C@H]3CC[C@@H]2[C@](C)(C#N)Cn2cc(C#N)cn2)C1 [Compound 57, 1-((S)-2-cyano-2-((3R,5R,8R,9R,10S,13S,14S,17S)-3-hydroxy-3,13-dimethylhexadecahydro-1H-cyclopenta[a]phenanthren-17-yl)propyl)-1H-pyrazole-4-carbonitrile] | < 100
C[C@H]1C[C@H]2[C@H](CC[C@@H]3[C@@H]2CC[C@@]2(C)[C@H]3CC[C@@H]2[C@@](C)(O)Cn2cc(C#N)cn2)C[C@]1(C)O [Compound 51, 1-((R)-2-hydroxy-2-((2S,3S,5R,8R,9R,10S,13S,14S,17S)-3-hydroxy-2,3,13-trimethylhexadecahydro-1H-cyclopenta[a]phenanthren-17-yl)propyl)-1H-pyrazole-4-carbonitrile] | < 100
CC[C@@]1(O)CC[C@H]2[C@@H](CC[C@@H]3[C@@H]2CC[C@@]2(C)[C@H]3CC[C@@H]2[C@@](C)(O)Cn2cc(C#N)cn2)C1 [Compound 14, 1-((R)-2-((3R,5S,8R,9R,10S,13S,14S,17S)-3-ethyl-3-hydroxy-13-methylhexadecahydro-1H-cyclopenta[a]phenanthren-17-yl)-2-hydroxypropyl)-1H-pyrazole-4-carbonitrile] | ≥ 1000
CC[C@]12CC[C@@](C)(O)C[C@H]1CC[C@H]1[C@@H]3CC[C@H]([C@@](C)(Cn4cc(C#N)cn4)OC)[C@@]3(C)CC[C@@H]12 [Compound 5, 1-((S)-2-((3R,5R,8S,9S,10S,13S,14S,17S)-10-ethyl-3-hydroxy-3,13-dimethylhexadecahydro-1H-cyclopenta[a]phenanthren-17-yl)-2-methoxypropyl)-1H-pyrazole-4-carbonitrile] | < 100
C[C@H]1C[C@H]2[C@H](CC[C@@H]3[C@@H]2CC[C@@]2(C)[C@H]3CC[C@@H]2[C@](C)(O)Cn2cc(C#N)cn2)C[C@]1(C)O [Compound 50, 1-((S)-2-hydroxy-2-((2S,3S,5R,8R,9R,10S,13S,14S,17S)-3-hydroxy-2,3,13-trimethylhexadecahydro-1H-cyclopenta[a]phenanthren-17-yl)propyl)-1H-pyrazole-4-carbonitrile] | < 100
C[C@@]1(O)CC[C@H]2[C@H](CC[C@@H]3[C@@H]2CC[C@]2(C)[C@@H](C4(Cn5cc(C#N)cn5)COC4)CC[C@@H]32)C1 [Compound 28, 1-((3-((3R,5R,8R,9R,10S,13S,14S,17S)-3-hydroxy-3,13-dimethylhexadecahydro-1H-cyclopenta[a]phenanthren-17-yl)oxetan-3-yl)methyl)-1H-pyrazole-4-carbonitrile] | < 100
C[C@@]1(O)CC[C@H]2[C@H](CC[C@@H]3[C@@H]2CC[C@@]2(C)[C@H]3CC[C@@H]2[C@](C)(O)Cn2cc(C#N)cn2)C1 [Compound 2, 1-((S)-2-hydroxy-2-((3R,5R,8R,9R,10S,13S,14S,17S)-3-hydroxy-3,13-dimethylhexadecahydro-1H-cyclopenta[a]phenanthren-17-yl)propyl)-1H-pyrazole-4-carbonitrile] | < 100
CCC[C@@]1(O)CC[C@H]2[C@H](CC[C@@H]3[C@@H]2CC[C@@]2(C)[C@H]3CC[C@@H]2[C@@](C)(Cn2cc(C#N)cn2)OC)C1 [Compound 36, 1-((S)-2-((3R,5R,8R,9R,10S,13S,14S,17S)-3-hydroxy-13-methyl-3-propylhexadecahydro-1H-cyclopenta[a]phenanthren-17-yl)-2-methoxypropyl)-1H-pyrazole-4-carbonitrile] | 100 to 1000
CCOC[C@@]1(O)CC[C@@]2(C)[C@H](CC[C@@H]3[C@@H]2CC[C@@]2(C)[C@H]3CC[C@@H]2[C@@](C)(O)Cn2cc(C#N)cn2)C1 [Compound 25, 1-((R)-2-((3R,5R,8R,9S,10S,13S,14S,17S)-3-(ethoxymethyl)-3-hydroxy-10,13-dimethylhexadecahydro-1H-cyclopenta[a]phenanthren-17-yl)-2-hydroxypropyl)-1H-pyrazole-4-carbonitrile] | 100 to 1000
C[C@@]1(O)CC[C@H]2[C@H](CC[C@@H]3[C@@H]2CC[C@@]2(C)[C@H]3[C@H](C3CC3)C[C@@H]2[C@](C)(O)Cn2cc(C#N)cn2)C1 [Compound 47, 1-((S)-2-((3R,5R,8R,9R,10S,13S,14S,15S,17S)-15-cyclopropyl-3-hydroxy-3,13-dimethylhexadecahydro-1H-cyclopenta[a]phenanthren-17-yl)-2-hydroxypropyl)-1H-pyrazole-4-carbonitrile] | < 100
C[C@@H]1C[C@H]([C@@](C)(O)Cn2cc(C#N)cn2)[C@@]2(C)CC[C@H]3[C@@H](CC[C@@H]4C[C@](C)(O)CC[C@@H]43)[C@H]12 [Compound 49, 1-((R)-2-hydroxy-2-((3R,5R,8R,9R,10S,13S,14S,15R,17S)-3-hydroxy-3,13,15-trimethylhexadecahydro-1H-cyclopenta[a]phenanthren-17-yl)propyl)-1H-pyrazole-4-carbonitrile] | < 100
